Measurements published in ChEMBL document CHEMBL4665719, “Development of SKI-349, a dual-targeted inhibitor of sphingosine kinase and microtubule polymerization” (Bioorg Med Chem Lett, 2020).
One block for each compound: values may come before it. Activity calls are given as the source filed them. The calls are words filed in the database; no cut-off is given here.

Tests used:
[1] = target: T1, Sphingosine kinase 1/2 (Homo sapiens) (UniProt Q9NRA0+Q9NYA1); experiment: Inhibition of SPHK1/SPHK2 in human HL-60 cells assessed as induction of apoptosis by measuring spindle assembly checkpoint arrest at 3 nM after 16 hrs by Western blot analysis; assay type: cell-based
Tubulin (Homo sapiens) [2] = target: T2, Tubulin (Homo sapiens) (UniProt P68371+Q9H4B7+P0DPH7+P68366+Q13509+Q71U36+P04350+Q3ZCM7+P07437+P68363+Q9BQE3+Q6PEY2+Q13885+Q9BVA1+Q9BUF5); experiment: Inhibition of tubulin polymerization in human MOLM-13 cells assessed as disruption of microtubule network at 200 nM after 18 hrs by FITC-staining based flow cytometry analysis; assay type: cell-based
HL-60 = experiment: Cytotoxicity against human HL-60 cells assessed as reduction in cell viability after 48 hrs by MTT assay; assay type: functional, cell-based; settings: HL-60, 48 h
[3] = Cytotoxicity against human HL60/VCR cells assessed as reduction in cell viability after 48 hrs by MTT assay; assay type: functional, cell-based
Sphingosine kinase 1 = Sphingosine kinase 1 (Homo sapiens, UniProt Q9NYA1); experiment: Inhibition of recombinant His6x-tagged human SphK1 expressed in HEK293 cells assessed as reduction in S1P formation using D-erythro-sphingosine as substrate by […]
[4] = target: T1, Sphingosine kinase 1/2 (Homo sapiens); experiment: Inhibition of SPHK1/SPHK2 in human HL-60 cells assessed as sphingosine level assessed per 10^6 cells at 5 uM after 24 hrs by LC-ESI/MS analysis (reference value: 18.3 +/- 3.5 pmol); assay type: cell-based
[5] = target: T1, Sphingosine kinase 1/2 (Homo sapiens); experiment: Inhibition of SPHK1/SPHK2 in human HL-60 cells assessed as sphingosine-1-phosphate level assessed per 10^6 cells at 5 uM after 24 hrs by LC-ESI/MS analysis (reference value: 3.1 +/- 0.3 pmol); assay type: cell-based
[6] = target: T1, Sphingosine kinase 1/2 (Homo sapiens); experiment: Inhibition of SPHK1/SPHK2 in human HL-60 cells assessed as C16:0 ceramide level assessed per 10^6 cells at 5 uM after 24 hrs by LC-ESI/MS analysis (reference value: 33.5 +/- 4.1 pmol); assay type: cell-based
[7] = target: T1, Sphingosine kinase 1/2 (Homo sapiens); experiment: Inhibition of SPHK1/SPHK2 in human HL-60 cells assessed as C18:0 ceramide level assessed per 10^6 cells at 5 uM after 24 hrs by LC-ESI/MS analysis (reference value: 1.6 +/- 0.2 pmol); assay type: cell-based
[8] = target: Cyclin-dependent kinase 1 (Homo sapiens) (UniProt P06493); experiment: Activation of CDK1 in human HL60/VCR cells assessed as induction of Bcl2 phosphorylation at Ser70 residue at 5 uM after 24 hrs in presence of Ro-3306 by Western blot analysis; assay type: cell-based
[9] = target: Cyclin-dependent kinase 1 (Homo sapiens) (UniProt P06493); experiment: Activation of CDK1 in human HL60/VCR cells assessed as activation of caspase 7 at 5 uM after 24 hrs in presence of Ro-3306 by Western blot analysis; assay type: cell-based
[10] = target: Cyclin-dependent kinase 1 (Homo sapiens) (UniProt P06493); experiment: Activation of CDK1 in human HL-60 cells assessed as induction of Bcl2 phosphorylation at Ser70 residue at 5 uM after 24 hrs in presence of Ro-3306 by Western blot analysis; assay type: cell-based
[11] = target: Cyclin-dependent kinase 1 (Homo sapiens) (UniProt P06493); experiment: Activation of CDK1 in human HL-60 cells assessed as activation of caspase 7 at 5 uM after 24 hrs in presence of Ro-3306 by Western blot analysis; assay type: cell-based
Tubulin (Homo sapiens) [12] = target: T2, Tubulin (Homo sapiens); experiment: Inhibition of tubulin polymerization in human MOLM-13 cells assessed as disruption of microtubule network at 100 nM after 18 hrs by FITC-staining based flow cytometry analysis; assay type: cell-based
[13] = target: T1, Sphingosine kinase 1/2 (Homo sapiens); experiment: Inhibition of SPHK1/SPHK2 in human HL-60 cells assessed as induction of apoptosis by measuring spindle assembly checkpoint arrest at 20 nM after 16 hrs by Western blot analysis; assay type: cell-based

T1 sequence (Q9NRA0 whole entry, looked up): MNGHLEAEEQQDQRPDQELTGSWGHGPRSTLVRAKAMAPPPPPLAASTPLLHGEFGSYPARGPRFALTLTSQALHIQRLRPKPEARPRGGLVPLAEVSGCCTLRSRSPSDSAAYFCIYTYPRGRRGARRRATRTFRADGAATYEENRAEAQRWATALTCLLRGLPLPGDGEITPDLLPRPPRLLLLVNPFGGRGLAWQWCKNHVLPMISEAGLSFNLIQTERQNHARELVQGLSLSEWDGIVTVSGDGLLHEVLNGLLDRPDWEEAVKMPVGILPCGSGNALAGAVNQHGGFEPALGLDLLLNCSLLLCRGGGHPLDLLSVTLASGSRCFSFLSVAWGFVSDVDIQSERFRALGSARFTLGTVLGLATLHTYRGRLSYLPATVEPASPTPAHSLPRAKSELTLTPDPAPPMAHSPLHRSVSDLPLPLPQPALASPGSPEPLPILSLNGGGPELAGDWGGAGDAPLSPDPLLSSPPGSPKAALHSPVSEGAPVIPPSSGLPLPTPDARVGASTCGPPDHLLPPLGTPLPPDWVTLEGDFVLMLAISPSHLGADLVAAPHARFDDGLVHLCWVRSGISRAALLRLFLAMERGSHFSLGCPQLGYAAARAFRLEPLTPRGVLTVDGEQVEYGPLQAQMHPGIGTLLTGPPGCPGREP
T1 sequence (Q9NYA1 whole entry, looked up): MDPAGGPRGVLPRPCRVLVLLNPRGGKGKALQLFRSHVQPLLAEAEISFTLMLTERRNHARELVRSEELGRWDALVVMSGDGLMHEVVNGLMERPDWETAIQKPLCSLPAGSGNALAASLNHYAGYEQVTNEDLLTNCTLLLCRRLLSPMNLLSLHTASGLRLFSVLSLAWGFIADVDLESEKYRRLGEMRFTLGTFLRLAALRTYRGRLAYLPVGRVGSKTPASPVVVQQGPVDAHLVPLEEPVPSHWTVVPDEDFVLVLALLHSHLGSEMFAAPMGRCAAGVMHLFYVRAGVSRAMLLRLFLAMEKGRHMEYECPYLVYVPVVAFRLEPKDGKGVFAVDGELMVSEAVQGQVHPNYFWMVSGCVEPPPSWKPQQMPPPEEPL
Sequence of Cyclin-dependent kinase 1 (Homo sapiens) (P06493 whole entry, looked up): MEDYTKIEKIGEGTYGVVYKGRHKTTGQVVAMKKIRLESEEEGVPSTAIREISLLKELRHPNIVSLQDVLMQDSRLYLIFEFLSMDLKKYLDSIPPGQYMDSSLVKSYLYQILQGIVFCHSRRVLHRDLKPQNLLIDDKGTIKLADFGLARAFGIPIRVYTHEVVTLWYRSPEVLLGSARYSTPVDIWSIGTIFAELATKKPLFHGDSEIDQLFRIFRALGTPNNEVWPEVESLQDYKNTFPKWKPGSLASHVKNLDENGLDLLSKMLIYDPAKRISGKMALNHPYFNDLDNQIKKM
Sequence of Sphingosine kinase 1 (Q9NYA1 whole entry): as the sequence (Q9NYA1 whole entry, looked up) above

Structure (SMILES): Cc1ccc(C(=O)N(CCCN)[C@@H](c2nc3cc(Cl)ccc3c(=O)n2Cc2ccccc2)C(C)C)cc1
Activity [1]: Active

Structure (SMILES): CC[C@]1(O)C[C@H]2CN(CCc3c([nH]c4ccccc34)[C@@](C(=O)OC)(c3cc4c(cc3OC)N(C=O)[C@H]3[C@@](O)(C(=O)OC)[C@H](OC(C)=O)[C@]5(CC)C=CCN6CC[C@]43[C@@H]65)C2)C1
inhibition (Tubulin (Homo sapiens) [2]): Active

Structure (SMILES): COc1ccc(-c2cc(C(=O)N/N=C(\C)c3ccc(OC)c(OC)c3)[nH]n2)cc1
IC50 (HL-60): 0.47 µM
IC50 [3]: 1.1 µM
IC50 (Sphingosine kinase 1): 3 µM
Activity [4]: 28.7 pmol
Activity [5]: 3.2 pmol
Activity [6]: 84 pmol
Activity [7]: 4.8 pmol
Activity [8]: inactive
Activity [9]: inactive
Activity [10]: inactive
Activity [11]: inactive

Next, values leading:

inhibition (Tubulin (Homo sapiens) [12]): Active
Structure (SMILES): CC(=O)O[C@H]1C(=O)[C@@]2(C)[C@H]([C@H](OC(=O)c3ccccc3)[C@]3(O)C[C@H](OC(=O)[C@H](O)[C@@H](NC(=O)c4ccccc4)c4ccccc4)C(C)=C1C3(C)C)[C@]1(OC(C)=O)CO[C@@H]1C[C@@H]2O

Activity [13]: Active
Structure (SMILES): CC[C@@H]1C(=O)N(C)c2cnc(Nc3ccc(C(=O)N[C@H]4CC[C@H](N5CCN(CC6CC6)CC5)CC4)cc3OC)nc2N1C(C)C
